# Test results: PubChem BioAssay (NCI)
# Where “and” joins values, the source holds several entries; their conditions need not be identical. Equal entries are not always repeated.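 A five-concentration, 48-hour dose response in 96-well plates underlies each endpoint, interpolated linearly between surrounding concentrations. GI50: concentration for 50% inhibition of growth. TGI marks complete inhibition of growth.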
# Tests used:
# Assay in all cases: inhibition of tumour cell growth, NCI panel, 48 h
# COLO 205 colon = tested on: COLO 205 colon
# NCI-H23 lung = tested on: NCI-H23 lung
# SK-MEL-28 melanoma = tested on: SK-MEL-28 melanoma
# LXFL 529 NSCLC = tested on: LXFL 529 NSCLC
# M19-MEL melanoma = tested on: M19-MEL melanoma
# NCI-H226 lung = tested on: NCI-H226 lung
# HL-60(TB) leukemia = tested on: HL-60(TB) leukemia
# HCC-2998 colon = tested on: HCC-2998 colon
# HOP-62 NSCLC = tested on: HOP-62 NSCLC
# SK-MEL-2 melanoma = tested on: SK-MEL-2 melanoma
Structure (SMILES),TGI (COLO 205 colon) [µM],TGI (NCI-H23 lung) [µM],TGI (SK-MEL-28 melanoma),TGI (LXFL 529 NSCLC) [µM],TGI (M19-MEL melanoma) [µM],TGI (NCI-H226 lung),TGI (HL-60(TB) leukemia),TGI (HCC-2998 colon) [µM],TGI (HOP-62 NSCLC),TGI (SK-MEL-2 melanoma),GI50 (COLO 205 colon) [µM],GI50 (NCI-H23 lung) [µM],GI50 (SK-MEL-28 melanoma) [µM],GI50 (LXFL 529 NSCLC) [µM],GI50 (M19-MEL melanoma) [µM],GI50 (NCI-H226 lung) [µM],GI50 (HL-60(TB) leukemia) [µM],GI50 (HCC-2998 colon) [µM],GI50 (HOP-62 NSCLC) [µM],GI50 (SK-MEL-2 melanoma)
Cc1nc(C)c(C(=O)Nc2cccc3c2C(=O)NC3=O)cc1C(=O)Nc1cccc2c1C(=O)NC2=O,> 100,> 100,> 100 µM,> 100,> 100,> 100 µM,> 100 µM,> 100,> 100 µM,> 100 µM,,,,,,,,,,
N/C(=N\NS(=O)(=O)c1ccccc1)Oc1ccc(Cl)cc1,> 100,> 100,> 100 µM,> 100,> 100,> 100 µM,60.6 µM,> 100,> 100 µM,> 100 µM,,,,,,,,,,
COc1ccc2cccc(C(=O)c3ccc(C)c4c3CCC4)c2c1,68.3,77,> 100 µM,> 100,> 100,> 100 µM,44.7 µM,43.1,69.3 µM,98.2 µM,,,,,,,,,,
C/C1=C\[C@H](C)C[C@H](C)OC(=O)C[C@H](c2ccc(O)cc2)NC(=O)[C@@H](Cc2c(Br)[nH]c3ccccc23)N(C)C(=O)[C@H](C)NC(=O)[C@@H](C)C1,0.887,1.05,0.308 µM and 1.74 µM,3.41,2.02,0.661 µM and 0.0703 µM,0.384 µM and 0.175 µM,2.27,0.443 µM and 0.369 µM,0.251 µM and 0.0476 µM,< 0.0132,0.114,0.0272,0.0299,0.0414,0.0268,0.0176,0.43,0.0883,0.0999 µM and 0.0207 µM
O=C1c2ccccc2C(=O)c2c(NCCCNCCO)ccc(NCCCNCCO)c21,18.9,23.9,16.8 µM,16.1,18.6,12.3 µM,33.8 µM,16.7,23.8 µM,17.7 µM,,,,,,,,,,
C=CN1C(=O)OC(c2ccccc2)C1c1ccccc1 (stereo not given),> 100,> 100,> 100 µM,> 100,> 100,> 100 µM,> 100 µM,> 100,> 100 µM,> 100 µM,> 100,> 100,> 100,> 100,> 100,> 100,,> 100,52.8,> 100 µM
COC(=O)C1=C(OC)c2cc3c(cc2C(c2cc(OC)c(OC)c(OC)c2)C1C(=O)OC)OCO3 (stereo not given),> 100,> 100,> 100 µM,> 100,> 100,> 100 µM,> 100 µM,> 100,> 100 µM,> 100 µM,,,,,,,,,,
Cc1ccc2nc3c(C)c(Cl)c(=O)cc-3sc2c1,> 80.8,34.3,99.2 µM,> 100,12.9,64 µM,26.7 µM,> 100,69.4 µM,37.5 µM,,,,,,,,,,
CN(C)C[C@H]1CC[C@@H](CN(C)C)C1=O,11.3,18.4,12.2 µM,12.5,17,32.3 µM,4.1 µM,> 37.5,> 50 µM,15.4 µM,0.759,,,,,,,,,
Cc1cnc[nH]c1=O,> 100,> 100,> 100 µM,> 100,> 100,> 100 µM,> 100 µM,> 100,> 100 µM,> 100 µM,,,,,,,,,,
